Results taken from patent US20250171438A1 (Agios Pharmaceuticals, Inc., priority 2022, published 2025).

Target: T1, human PAH with the R408W mutation (Homo sapiens, UniProt P00439, R408W)
T1 construct: expressed in transfected cells
T1 sequence (P00439 1-452 R408W): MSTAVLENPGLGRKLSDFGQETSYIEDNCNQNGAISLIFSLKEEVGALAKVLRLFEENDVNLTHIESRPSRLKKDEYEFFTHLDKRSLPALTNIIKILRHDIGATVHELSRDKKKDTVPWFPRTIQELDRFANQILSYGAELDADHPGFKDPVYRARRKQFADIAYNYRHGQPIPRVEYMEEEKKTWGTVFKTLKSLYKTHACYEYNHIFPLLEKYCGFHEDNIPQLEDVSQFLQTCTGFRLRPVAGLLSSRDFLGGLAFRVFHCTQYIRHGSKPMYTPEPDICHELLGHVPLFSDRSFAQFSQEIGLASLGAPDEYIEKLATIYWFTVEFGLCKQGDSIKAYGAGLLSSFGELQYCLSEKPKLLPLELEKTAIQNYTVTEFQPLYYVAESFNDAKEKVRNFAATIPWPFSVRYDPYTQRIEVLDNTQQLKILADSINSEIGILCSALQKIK
Assay: Cell Based Phenylalanine Flux Assay
Set-up: scale not given here
Settings: A375 cells expressing human R408W PAH; 24 hrs compound incubation; 13C-Tyrosine by LC-MS; average where tested multiple times; read-out: AC50

CC(F)(F)c1ncc(C(=O)N2CCc3[nH]cnc3[C@@H]2c2nc3c(F)cccc3s2)s1 [Example 1514, (R)-(2-(1,1-difluoroethyl)thiazol-5-yl)(4-(4-fluorobenzo[d]thiazol-2-yl)-6,7-dihydro-1H-imidazo[4,5-c]pyridin-5(4H)-yl)methanone] was tested. Which AC50 did it give?
The AC50 was 1 to 5 µM.

How did the AC50 turn out when [2H][C@@]1(c2nc3ccccc3s2)c2nc[nH]c2CCN1C(=O)c1cnc(-c2cnn(C)c2)s1 [Example 2157, [(4S)-4-(1,3-benzothiazol-2-yl)-4-deuterio-6,7-dihydro-1H-imidazo[4,5-c]pyridin-5-yl]-[2-(1-methylpyrazol-4-yl)thiazol-5-yl]methanone] was run?
Its AC50 is < 0.5 µM.

How did the AC50 turn out when “(S)-(4-(benzo[d]thiazol-2-yl)-6,7-dihydro-1H)-imidazo[4,5-c]pyridin-5(4H)-yl)(6-bromopyrazolo[1,5-a]pyridin-3-yl)methanone [Example 1045]” was run?
The AC50 was 0.5 to 1 µM.

COCCn1nccc1C(=O)N1CCc2[nH]cnc2[C@@H]1c1nc2c(F)cccc2s1 [Example 1724, (R)-(4-(4-fluorobenzo[d]thiazol-2-yl)-6,7-dihydro-1H-imidazo[4,5-c]pyridin-5(4H)-yl)(1-(2-methoxyethyl)-1H-pyrazol-5-yl)methanone] was tested. Which AC50 did it give?
Its AC50 is < 0.5 µM.

CC(C)(O)c1nc(C(F)(F)F)c(C(=O)N2CC3(CC3)c3[nH]cnc3[C@H]2c2nc3ccccc3s2)o1 [Example 1679, (S)-(4′-(benzo[d]thiazol-2-yl)spiro[cyclopropane-1,7′-imidazo[4,5-c]pyridin]-5′(1′H,4′H,6′H)-yl)(2-(2-hydroxypropan-2-yl)-4-(trifluoromethyl)oxazol-5-yl)methanone] was tested. Which AC50 did it give?
Its AC50 is 0.5 to 1 µM.

Which AC50 does the source give for Cc1nc(Br)c(C(=O)N2CCc3[nH]cnc3[C@H]2c2nc3c(F)cccc3s2)o1 [Example 1760] here?
The AC50 was < 0.5 µM.

Same assay, conditions: A375 cells expressing human R408W PAH; 24 hrs with compound; 13C-Tyrosine by LC-MS; average where tested multiple times

With O=C(c1ocnc1C(F)F)N1CCc2[nH]cnc2C1c1nc2ccccc2[nH]1 (stereo not drawn) as the compound, how does the AC50 read?
Its AC50 is “E, E”.

Same assay, conditions: A375 cells expressing human R408W PAH; 24 hrs with compound; 13C-Tyrosine by LC-MS; average where tested multiple times; read-out: AC50

CC(C)(O)c1nnc(C(=O)N2CCc3[nH]cnc3C2c2nc3c(F)cccc3s2)o1 (stereo not drawn) was tested. Which AC50 did it give?
Its AC50 is 1 to 5 µM.

How did the AC50 turn out when Cn1ncc(C(=O)N2CCc3[nH]cnc3C2c2nc3c(F)cccc3s2)n1 (stereo not drawn) was run?
The AC50 was > 5 µM.
